Results on one compound are retold here after patent publication US6042841A, “Cosmetic method of treating skin” (Unilever Home & Personal Care USA Division of Conopco, Inc., priority 1998, dated 2000).

Common to all, as to type: cell-based
Series [1] relates to keratinocytes. Nature of the series: Keratinocyte SDS viability assay (Neutral Red). The conditions noted are these: vs 2 μg/ml SDS alone; 1 way ANOVA, p<0.05. On the procedure: (§1) After incubating for 24 hours the medium was removed and the viability determined by the Neutral Red method.
For the next series, the system named is PGE2. The series can be described thus: Prostaglandin E2 assay, PMA-induced PGE2 production in human skin fibroblasts. Conditions: for PGE2: N 4, p < 0.001 vs PMA-treated. As for the experimental part:
Intracellular adhesion molecules (ICAM) and PEG2 production by human skin fibroblasts can be induced by the inflammatory stimulus PMA (phorbal myristate acetate). PMA represents an external stressor which induces oxidative stress and inflammatory responses in cells. This model is used to model inflammation in vivo.
Primary human foreskin fibroblasts at passage 2 (P2) were seeded into 96-well plates at 10000 cells/well and maintained for 24 hours in an atmosphere of 5% carbon dioxide in Dulbeccos Modified Eagles Medium (DMEM) supplemented with 10% foetal calf serum. […] Phorbal myristate acetate (PMA) (Sigma) was added to the media and the cells incubated for a further 24 hours. […] The fibroblasts/media were then analysed as described below immediately or snap frozen in liquid nitrogen and stored at -70° C. for future analysis. The cells were then counted and data from the dot-blot analysis subsequently standardised to cell number.
Prostaglandin E2 (PGE2) assay: Volumes of 50 μl culture medium were taken for PGE2 assay after gently shaking the culture plate. PGE2 levels in the medium were determined with a Biotrak PGE2 immunoassay kit (Amersham, UK). The assay is based on the competition between unlabelled PGE2 in the sample and a fixed quantity of horseradish peroxidase labelled PGE2 for a limited amount of fixed PGE2 specific antibody. Concentrations of unlabelled sample PGE2 are determined according to a standard curve which was obtained at the same time.

The subject of series [2] is B16-F1 mouse melanoma cells. Nature of the series: Pigmentation assay (melanin in media). As for the experimental part: B16-F1 mouse melanoma cells (American Type Culture Collection, Maryland, USA) were maintained in 75 cm^2 culture flasks in RPMI 1640 medium (ICN-Flow, cat. no. 12-60-54) supplemented with L-glutamine (4 mM) and 10% foetal bovine serum (FBS) at 37° C. in a water saturated, 5% CO2 in air atmosphere. Cells were passaged twice weekly.
Subconfluent B16 cells were seeded in 96 well microtiter plates at a density of 5000 cells/well and cultured overnight in DMEM (Life Technologies, NY) containing 10% foetal bovine serum and 1% penicillin/streptomycin without phenol red at 37° C. under 5% CO2. After 24 hours, the media was replaced with fresh media containing the test materials or vehicle controls. Cells were incubated for 72 hours at which time melanin was visible in the control wells. Next, the melanin containing media from each well was transferred to a clean 96 well plate and quantified by reading the absorbance at 530 nm using a microplate spectrophotometer (Dynatech MR5000) and correcting for the baseline absorption of fresh medium. As the corrected absorption is proportional to the melanin concentration the percentage pigmentation for a skin lightening test substance can be calculated as: […]
where OD530 test and OD530 ref indicate the average corrected absorption of the medium from the wells with the test substance and that of the medium from the wells without the test substance. The percentage inhibition caused by the test substance is then 100 - % pigmentation.

For another series, the system named is decorin. The series can be described thus: Dot blot assay for decorin synthesis in human dermal fibroblasts. On the procedure: Primary human foreskin fibroblasts at passage 2 (P2) were seeded into 12-well plates at 10000 cells/cm^2 and maintained for 24 hours in an atmosphere of 5% carbon dioxide and 4% oxygen in Dulbeccos Modified Eagles Medium (DMEM) supplemented with 10% foetal calf serum. After this time the cells were washed with serum free DMEM and then incubated in fresh serum free DMEM for a further 60 hours. The fibroblast monolayers were then washed again with serum free DMEM. Test reagents and vehicle controls were added to the cells in triplicate in a final volume of 0.4 ml/well fresh serum free DMEM and incubated for a further 24 hours. This fibroblast conditioned medium was either analysed immediately or snap frozen in liquid nitrogen and stored at -70° C. for future analysis. The cells were then counted and data from the dot-blot analysis subsequently standardised to cell number.
Samples of conditioned medium from dermal fibroblasts treated with vehicle (as a control) or test reagents were supplemented with 20 mM dithiothreitol (1:10 dilution of 200 mM stock solution) and 0.1% sodium dodecylsulphate (1:100 dilution of 10% stock solution), mixed well and then incubated at 75° C. for 2 minutes. A standard for the assay was generated by serial dilution of neat fibroblast conditioned medium from fibroblasts seeded at 10000 cells/cm^2 in a 175 cm^2 flask and maintained in serum free DMEM as described above. Assay samples were subsequently applied in triplicate to a prewetted sheet of Immobilon-P transfer membrane using the 96-well Bio-Dot Apparatus from Bio-Rad as described in the manufacturers guidelines. Approximately 200 μl of medium was applied per well. […] Dot intensity was assessed by computer-assisted image analysis using the quantification tools in ImageQuant™, standardised to cell number and the effects of various test reagents on decorin and procollagen-I synthesis were determined relative to a vehicle treated control value of 100 arbitrary units.

Series [3] concerns keratinocytes. Nature of the series: Keratinocyte viability by neutral red up-take in PGE2 assay. Conditions: at the concentrations tested. As for the experimental part:
as §1
The cells were then tested for viability by the neutral red up-take method described in example 2 above.

Molecules are shown by their SMILES.

As to `CCCCCCCCCCC/C=C\CCCCC(=O)O` [Petroselinic Acid, petroselinic acid], in the series with keratinocytes [1], the “Keratinocyte viability vs SDS alone (in words)” value is recorded as “significantly increased viability”. The PGE2 came out at 500 ± 127 pg/mL with PGE2 (PMA + PA (0.1 uM)), 486 ± 93 pg/mL in the series on PGE2 (PMA + PA (1 uM)), 233 ± 139 pg/mL in the series on PGE2 (PMA + PA (10 uM)) and 117 ± 39 pg/mL with PGE2 (PMA + PA (100 uM)). The “inflammatory response as measured by PGE2 production (in words)” value in the series on PGE2 (PMA-challenged, even at 0.1 μm (so in the source)) is “dramatically reduces the inflammatory response”. Further, in series [2], the “melanin production (in words)” value is recorded as “inhibits melanin production”. In series [2] (Mus musculus, B16-F1, 0.01%, 72 hours, n = 4, ** (0.000)), this compound yielded an activity at 0.01 % of 79.5%. The activity at 0.013 % in series [2] (Mus musculus, B16-F1, 0.013%, 72 hours, n = 4, ** (0.000)) worked out at 40.4%. In addition, in series [2] (Mus musculus, B16-F1, 0.02%, 72 hours, n = 4, ** (0.000)), the activity at 0.02 % came out at 55.3%. For the same compound, the activity at 0.04 % in series [2] (Mus musculus, B16-F1, 0.04%, 72 hours, n = 4, ** (0.000)) amounted to 3.9%. For the same compound, the activity at 0.1 % in series [2] (Mus musculus, B16-F1, 0.1%, 72 hours, n = 4, ** (0.000)) came to 19.3%. Moreover, in the series with decorin (compared to the control), the “decorin synthesis (in words)” value was “significantly upregulates”. Also, the “magnitude of upregulation of decorin synthesis vs retinoic acid (in words)” value with decorin (petroselinic acid 10 μM vs retinoic acid 1 μm (so in the source)) is listed as “exceeds that of the bench-mark anti-aging dermal repair active, retinoic acid”. In addition, in the series with keratinocytes [3], the “Cell viability of keratinocytes (in words)” value is given as “not found to be adversely effected”.
